This note sets out measurements from ChEMBL document CHEMBL1201862, “PubChem BioAssay data set” (2004).

Test [1] has as its target T1, RNA-binding protein pos-1 (Caenorhabditis elegans, UniProt G5EF15).
T1 sequence (G5EF15 whole entry): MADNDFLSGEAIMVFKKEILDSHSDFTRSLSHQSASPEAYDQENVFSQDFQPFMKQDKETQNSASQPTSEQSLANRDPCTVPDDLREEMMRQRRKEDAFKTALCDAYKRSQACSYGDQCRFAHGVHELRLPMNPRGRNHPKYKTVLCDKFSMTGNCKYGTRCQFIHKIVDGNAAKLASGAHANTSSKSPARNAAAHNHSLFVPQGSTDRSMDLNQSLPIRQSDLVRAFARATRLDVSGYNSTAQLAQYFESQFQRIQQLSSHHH
As to the kind of experiment: disruptors of C. elegans POS-1 RNA interaction – biochemical, fluorescence polarization, dose response (AID 1964).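 Also: purified POS-1 fused to maltose binding protein made in E. coli; potency of compounds blocking POS-1 binding to fluorescent RNA.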

Test [2] has as its target T2, Zinc finger protein mex-5 (Caenorhabditis elegans, UniProt Q9XUB2).
T2 sequence (Q9XUB2 whole entry): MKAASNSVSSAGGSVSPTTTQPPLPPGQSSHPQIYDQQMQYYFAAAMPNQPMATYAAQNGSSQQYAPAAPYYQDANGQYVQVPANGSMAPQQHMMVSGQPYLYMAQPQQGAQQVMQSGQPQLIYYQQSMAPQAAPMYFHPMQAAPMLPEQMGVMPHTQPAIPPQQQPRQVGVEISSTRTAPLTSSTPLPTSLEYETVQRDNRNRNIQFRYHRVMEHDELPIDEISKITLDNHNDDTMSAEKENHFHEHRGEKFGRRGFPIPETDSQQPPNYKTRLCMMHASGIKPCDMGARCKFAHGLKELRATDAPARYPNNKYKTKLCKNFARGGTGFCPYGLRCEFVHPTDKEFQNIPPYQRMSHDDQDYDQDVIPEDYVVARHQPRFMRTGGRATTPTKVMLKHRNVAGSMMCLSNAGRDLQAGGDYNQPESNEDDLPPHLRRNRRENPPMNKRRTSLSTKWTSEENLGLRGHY
As to the kind of experiment: potency of MEX-5 RNA-binding blockers – biochemical, C. elegans, fluorescence polarization, dose response (AID 1960). For orientation: Polarisation of emitted light reports the rotation of a fluorescent probe.

In test [3] the target is T3, Sentrin-specific protease 1 (Homo sapiens, UniProt Q9P0U3).
T3 sequence (Q9P0U3 whole entry): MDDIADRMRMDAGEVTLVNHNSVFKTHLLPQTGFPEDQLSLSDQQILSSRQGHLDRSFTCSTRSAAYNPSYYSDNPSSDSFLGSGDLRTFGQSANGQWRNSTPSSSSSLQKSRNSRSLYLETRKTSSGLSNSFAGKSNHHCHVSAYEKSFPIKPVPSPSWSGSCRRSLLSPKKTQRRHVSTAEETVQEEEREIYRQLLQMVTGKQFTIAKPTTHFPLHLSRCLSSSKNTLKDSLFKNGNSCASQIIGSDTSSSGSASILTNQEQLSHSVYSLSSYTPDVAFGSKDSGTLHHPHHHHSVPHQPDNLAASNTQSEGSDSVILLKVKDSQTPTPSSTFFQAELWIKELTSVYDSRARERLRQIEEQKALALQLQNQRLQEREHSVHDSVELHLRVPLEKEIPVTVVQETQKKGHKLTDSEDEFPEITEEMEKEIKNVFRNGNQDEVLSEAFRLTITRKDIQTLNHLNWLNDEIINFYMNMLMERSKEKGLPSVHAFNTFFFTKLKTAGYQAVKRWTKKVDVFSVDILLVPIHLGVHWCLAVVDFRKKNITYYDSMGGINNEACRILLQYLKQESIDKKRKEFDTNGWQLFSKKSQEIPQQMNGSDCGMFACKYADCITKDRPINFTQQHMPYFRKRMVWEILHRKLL
As to the kind of experiment: SENP1 catalytic domain blockers, concentration series – biochemical, kinetic FRET, dose response (AID 651697). The settings on record: read-out: IC50_Mean. The test is classed as functional.

The target of test [4] is T3, Sentrin-specific protease 1. As to the kind of experiment: Dose response confirmation of small molecule inhibitors of the catalytic domain of the SUMO protease, SENP1 in a FRET assay. In kind it is functional. The settings on record: read-out: IC50_Mean.
For test [5], the target named is T4, Rac GTPase-activating protein 1 (Homo sapiens, UniProt Q9H0H5).
T4 sequence (Q9H0H5 whole entry): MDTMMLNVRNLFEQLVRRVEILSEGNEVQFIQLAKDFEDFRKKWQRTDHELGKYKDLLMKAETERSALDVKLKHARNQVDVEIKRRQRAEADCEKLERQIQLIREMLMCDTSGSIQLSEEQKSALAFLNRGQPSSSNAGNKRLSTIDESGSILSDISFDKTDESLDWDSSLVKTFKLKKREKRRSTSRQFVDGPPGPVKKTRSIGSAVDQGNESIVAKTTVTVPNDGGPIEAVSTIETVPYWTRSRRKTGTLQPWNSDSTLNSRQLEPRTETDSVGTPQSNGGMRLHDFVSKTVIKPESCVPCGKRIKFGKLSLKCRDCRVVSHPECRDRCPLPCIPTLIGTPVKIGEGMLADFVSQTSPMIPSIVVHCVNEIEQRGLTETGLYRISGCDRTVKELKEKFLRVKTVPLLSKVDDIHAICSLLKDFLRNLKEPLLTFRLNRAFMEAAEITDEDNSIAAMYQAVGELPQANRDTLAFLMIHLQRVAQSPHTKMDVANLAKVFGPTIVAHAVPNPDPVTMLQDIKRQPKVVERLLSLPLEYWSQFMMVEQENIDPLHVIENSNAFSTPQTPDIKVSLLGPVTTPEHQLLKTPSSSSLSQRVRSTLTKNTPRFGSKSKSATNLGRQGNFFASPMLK
As to the kind of experiment: blockers of MgcRacGAP-driven Rac1 GTP hydrolysis – biochemical, ADP Hunter fluorescence, primary and confirmatory, confirmation (AID 624330). The test is classed as functional.

A short description of test [6]: Luminescence Cell-Based Dose Retest to Confirm Inhibitors of Cancer Stem Cells. [Related pubchem assays (depositor defined):AID2717, AID2721]. The test is classed as functional. The conditions noted are these: Homo sapiens.
Test [7] deals with T5, Heat shock factor protein 1 (Mus musculus, UniProt P38532).
T5 sequence (P38532 whole entry): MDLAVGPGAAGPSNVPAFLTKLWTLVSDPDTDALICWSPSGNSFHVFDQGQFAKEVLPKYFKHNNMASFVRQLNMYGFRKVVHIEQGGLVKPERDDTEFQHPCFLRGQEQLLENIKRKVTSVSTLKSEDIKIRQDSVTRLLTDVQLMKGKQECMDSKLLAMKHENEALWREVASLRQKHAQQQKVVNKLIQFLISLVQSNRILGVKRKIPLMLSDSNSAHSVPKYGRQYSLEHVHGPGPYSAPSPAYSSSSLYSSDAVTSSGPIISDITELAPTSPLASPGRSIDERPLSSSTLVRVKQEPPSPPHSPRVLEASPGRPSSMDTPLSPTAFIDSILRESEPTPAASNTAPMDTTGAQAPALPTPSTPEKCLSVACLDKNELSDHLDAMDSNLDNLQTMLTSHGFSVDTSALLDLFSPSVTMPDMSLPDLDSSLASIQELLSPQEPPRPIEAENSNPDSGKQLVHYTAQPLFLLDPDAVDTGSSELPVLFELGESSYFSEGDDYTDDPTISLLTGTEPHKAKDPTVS
As to the kind of experiment: enhancement of HSF1-driven luciferase signal – cell-based, NIH3T3, luminescence, dose retest, confirmation (AID 435004).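 Also: stress induced by proteasome inhibitor MG132 added 30 min after compound; luciferase reporter driven by HSF1 response element in NIH3T3 cells; actives raise luminescence as potentiators of the MG132 stress response.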 In kind it is functional.

Another test concerns Vero. Kind of test: cells. In kind it is functional. The settings on record: Chlorocebus sabaeus.
For test [8], the target named is Hepatocyte nuclear factor 4-alpha (Homo sapiens, UniProt P41235). In kind it is functional, cell-based.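 Also: biochemical luminescence-based dose-response counterscreen measuring inhibition of HNF4 dimerization, run alongside a screen for blockers of ABHD5–perilipin-5 interaction; split luciferase complementation of HNF4 fusion proteins in cell lysate measuring dimerization.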
The target of test [9] is T6, Acyl-homoserine lactone acylase PvdQ (Pseudomonas aeruginosa (strain LESB58), UniProt Q9I194).
T6 sequence (Q9I194 whole entry): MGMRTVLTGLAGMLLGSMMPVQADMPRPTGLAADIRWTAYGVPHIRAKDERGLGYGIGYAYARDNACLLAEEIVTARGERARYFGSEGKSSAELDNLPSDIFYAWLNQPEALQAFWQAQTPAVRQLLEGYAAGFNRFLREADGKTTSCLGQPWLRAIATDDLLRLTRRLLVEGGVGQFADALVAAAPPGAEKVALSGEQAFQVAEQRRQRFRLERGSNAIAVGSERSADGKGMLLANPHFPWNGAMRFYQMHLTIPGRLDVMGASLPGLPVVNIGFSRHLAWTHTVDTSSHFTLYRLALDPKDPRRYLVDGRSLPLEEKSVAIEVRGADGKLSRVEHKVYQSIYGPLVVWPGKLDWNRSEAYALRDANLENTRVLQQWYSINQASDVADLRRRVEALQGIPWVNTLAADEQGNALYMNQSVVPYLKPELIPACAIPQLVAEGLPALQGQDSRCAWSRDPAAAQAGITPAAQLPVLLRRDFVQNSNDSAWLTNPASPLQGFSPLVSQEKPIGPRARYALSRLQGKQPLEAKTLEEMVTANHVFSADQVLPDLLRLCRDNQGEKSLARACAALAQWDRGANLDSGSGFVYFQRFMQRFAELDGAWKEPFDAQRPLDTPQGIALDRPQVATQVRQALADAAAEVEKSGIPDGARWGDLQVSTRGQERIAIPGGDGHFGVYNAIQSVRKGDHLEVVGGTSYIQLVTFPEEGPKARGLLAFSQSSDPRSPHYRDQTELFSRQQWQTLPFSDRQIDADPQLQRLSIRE
Kind of test: PvdQ acylase enzyme activity blockers – biochemical, fluorescence, plate reader and imaging, cherry-picks, dose response (AID 493231).

Test [10] has as its target Peroxisome proliferator-activated receptor gamma/Nuclear receptor coactivator 1 (Homo sapiens, UniProt P37231). As to the kind of experiment: TR-FRET dose response biochemical High Throughput Screening assay for agonists of the steroid receptor coactivator 1 (SRC-1) recruitment by the peroxisome proliferator-activated receptor gamma (PPAR gamma): non-selective agonists. [Related pubchem assays (depositor defined):AID1300, AID1808, AID504735, AID631]. The test is classed as protein assay. (In general: Time-resolved FRET reads energy transfer from a long-lived donor to a nearby acceptor.)

Test [11] concerns the target Peroxisome proliferator-activated receptor gamma/Nuclear receptor coactivator 3 (Homo sapiens, UniProt P37231). As to the kind of experiment: TR-FRET dose response biochemical High Throughput Screening assay for agonists of the steroid receptor coactivator 3 (SRC-3) recruitment by the peroxisome proliferator-activated receptor gamma (PPAR gamma): non-selective agonists. [Related pubchem assays: 1301 (Confirmation screen.), 1048 (Primary screen.)]. In kind it is functional.

Test [12] deals with Luciferin 4-monooxygenase (Photinus pyralis, UniProt P08659). Kind of test: inhibition of purified Photinus pyralis luciferase – biochemical, luminescence, dose response (AID 1891).
Test [13] is described as follows: Luminescence Cell-Based Dose Confirmation HTS to Identify Inhibitors of Platelet Dense Granule Release. [Related pubchem assays: 1663 (Primary HTS), 1678 (Summary of Project)]. In kind it is functional.
In test [14] the target is Peroxisome proliferator-activated receptor gamma/Nuclear receptor coactivator 2 (Homo sapiens, UniProt P37231). Kind of test: TR-FRET dose response biochemical High Throughput Screening assay for agonists of the steroid receptor coactivator 2 (SRC-2) recruitment by the peroxisome proliferator-activated receptor gamma (PPAR gamma): non-selective agonists. [Related pubchem assays: 1297, 1032 ]. The test is classed as functional.

A further test deals with Beta-galactosidase (Escherichia coli, UniProt Q8VNN2). As to the kind of experiment: detection-enzyme interference by beta-gal modulators – biochemical, E. coli enzyme, set 3, artefact control for CCR6 antagonist project, dose response (AID 504712). In kind it is functional.
The nature of test [15]: Fluorescence-based cell-based high throughput dose response assay for inhibitors of the interaction of nucleotide-binding oligomerization domain containing 2 (NOD2) and the receptor-interacting serine-threonine kinase 2 (RIPK2). The conditions noted are these: Homo sapiens. The test is classed as functional.
A further test addresses Beta Lactamase (Pseudomonas aeruginosa, UniProt Q932Y6). Kind of test: BLA reporter interference, concentration series – BLA reporter cells, FRET fluorescence, artefact control for NOD2-RIPK2 interaction inhibitor project, dose response (AID 651552). The test is classed as functional, cell-based.
In test [16] the target is T7, Sentrin-specific protease 8 (Homo sapiens, UniProt Q96LD8).
T7 sequence (Q96LD8 whole entry): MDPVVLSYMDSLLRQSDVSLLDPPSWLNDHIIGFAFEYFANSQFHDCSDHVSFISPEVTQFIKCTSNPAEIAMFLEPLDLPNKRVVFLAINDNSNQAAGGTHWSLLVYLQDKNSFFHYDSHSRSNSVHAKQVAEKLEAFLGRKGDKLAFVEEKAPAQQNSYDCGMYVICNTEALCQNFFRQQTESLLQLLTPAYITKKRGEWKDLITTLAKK
In kind it is functional.

In test [17] the target is T7, Sentrin-specific protease 8. In kind it is functional. This is another data set of the same source.

The source made the active and inactive calls.

Sequence of Beta-galactosidase (Q8VNN2 whole entry, the tested form may be a part): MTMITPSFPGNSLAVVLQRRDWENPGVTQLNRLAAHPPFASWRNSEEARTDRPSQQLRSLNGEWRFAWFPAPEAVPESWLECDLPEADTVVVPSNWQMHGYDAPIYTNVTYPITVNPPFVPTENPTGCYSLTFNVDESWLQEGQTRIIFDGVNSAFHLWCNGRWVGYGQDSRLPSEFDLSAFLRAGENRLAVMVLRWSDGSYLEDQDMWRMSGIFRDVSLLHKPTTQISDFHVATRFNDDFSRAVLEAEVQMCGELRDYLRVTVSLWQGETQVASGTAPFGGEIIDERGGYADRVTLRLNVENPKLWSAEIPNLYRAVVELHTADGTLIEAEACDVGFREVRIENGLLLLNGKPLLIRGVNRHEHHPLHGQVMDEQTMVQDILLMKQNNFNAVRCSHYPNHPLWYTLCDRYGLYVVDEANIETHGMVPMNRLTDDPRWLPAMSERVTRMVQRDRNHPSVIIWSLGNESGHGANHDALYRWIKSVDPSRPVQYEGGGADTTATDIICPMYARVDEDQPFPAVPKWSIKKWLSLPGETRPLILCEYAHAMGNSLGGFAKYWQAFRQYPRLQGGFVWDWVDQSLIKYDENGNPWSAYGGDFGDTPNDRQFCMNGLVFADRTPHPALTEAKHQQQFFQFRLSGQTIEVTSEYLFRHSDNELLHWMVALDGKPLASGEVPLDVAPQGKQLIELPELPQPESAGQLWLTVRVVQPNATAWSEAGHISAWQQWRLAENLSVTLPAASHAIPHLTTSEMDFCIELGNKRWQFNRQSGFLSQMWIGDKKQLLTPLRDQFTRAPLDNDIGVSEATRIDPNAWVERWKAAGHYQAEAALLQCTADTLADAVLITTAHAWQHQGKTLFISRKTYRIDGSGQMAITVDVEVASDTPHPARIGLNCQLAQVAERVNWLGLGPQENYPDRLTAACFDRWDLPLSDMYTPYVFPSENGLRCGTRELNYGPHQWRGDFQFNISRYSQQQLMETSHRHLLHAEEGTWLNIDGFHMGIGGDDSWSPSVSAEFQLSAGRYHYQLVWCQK
Sequence of Beta Lactamase (Q932Y6 whole entry): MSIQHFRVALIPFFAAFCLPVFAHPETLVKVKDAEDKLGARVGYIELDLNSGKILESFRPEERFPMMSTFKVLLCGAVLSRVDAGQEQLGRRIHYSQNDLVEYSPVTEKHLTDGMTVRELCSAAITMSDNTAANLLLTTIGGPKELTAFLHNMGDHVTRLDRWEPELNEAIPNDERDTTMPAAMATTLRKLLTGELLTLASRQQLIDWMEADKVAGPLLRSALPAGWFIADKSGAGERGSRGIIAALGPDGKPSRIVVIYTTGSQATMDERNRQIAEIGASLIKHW
Sequence of Luciferin 4-monooxygenase (P08659 whole entry): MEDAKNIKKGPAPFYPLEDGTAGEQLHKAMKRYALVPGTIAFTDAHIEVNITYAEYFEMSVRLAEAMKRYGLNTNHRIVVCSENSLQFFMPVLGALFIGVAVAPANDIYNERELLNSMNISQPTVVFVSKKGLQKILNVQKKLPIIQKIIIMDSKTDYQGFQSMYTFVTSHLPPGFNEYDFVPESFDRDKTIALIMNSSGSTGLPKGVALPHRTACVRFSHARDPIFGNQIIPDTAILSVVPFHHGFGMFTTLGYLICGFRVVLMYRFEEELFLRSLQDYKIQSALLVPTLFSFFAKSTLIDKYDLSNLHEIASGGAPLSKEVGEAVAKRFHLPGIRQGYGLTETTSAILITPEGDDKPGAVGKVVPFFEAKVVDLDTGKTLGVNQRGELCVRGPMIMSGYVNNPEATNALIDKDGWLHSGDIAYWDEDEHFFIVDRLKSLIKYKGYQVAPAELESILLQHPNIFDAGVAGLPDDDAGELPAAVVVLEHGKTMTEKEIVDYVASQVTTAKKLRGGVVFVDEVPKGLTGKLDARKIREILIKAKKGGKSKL
Sequence of Hepatocyte nuclear factor 4-alpha (P41235 whole entry, the tested form may be a part): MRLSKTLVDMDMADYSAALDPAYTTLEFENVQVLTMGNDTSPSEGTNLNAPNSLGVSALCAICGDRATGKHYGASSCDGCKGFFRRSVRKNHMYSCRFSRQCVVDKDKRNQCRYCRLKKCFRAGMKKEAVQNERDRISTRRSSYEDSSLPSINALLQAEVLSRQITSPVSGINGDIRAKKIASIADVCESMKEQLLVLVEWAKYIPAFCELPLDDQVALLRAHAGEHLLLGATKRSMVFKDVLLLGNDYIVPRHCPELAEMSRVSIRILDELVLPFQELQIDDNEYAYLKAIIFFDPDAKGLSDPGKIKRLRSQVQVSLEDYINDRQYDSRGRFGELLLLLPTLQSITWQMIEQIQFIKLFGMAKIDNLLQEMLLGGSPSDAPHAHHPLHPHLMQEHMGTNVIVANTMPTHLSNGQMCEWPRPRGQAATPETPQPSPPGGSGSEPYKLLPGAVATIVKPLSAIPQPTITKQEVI
Sequence of Peroxisome proliferator-activated receptor gamma/Nuclear receptor coactivator 3 (P37231 whole entry): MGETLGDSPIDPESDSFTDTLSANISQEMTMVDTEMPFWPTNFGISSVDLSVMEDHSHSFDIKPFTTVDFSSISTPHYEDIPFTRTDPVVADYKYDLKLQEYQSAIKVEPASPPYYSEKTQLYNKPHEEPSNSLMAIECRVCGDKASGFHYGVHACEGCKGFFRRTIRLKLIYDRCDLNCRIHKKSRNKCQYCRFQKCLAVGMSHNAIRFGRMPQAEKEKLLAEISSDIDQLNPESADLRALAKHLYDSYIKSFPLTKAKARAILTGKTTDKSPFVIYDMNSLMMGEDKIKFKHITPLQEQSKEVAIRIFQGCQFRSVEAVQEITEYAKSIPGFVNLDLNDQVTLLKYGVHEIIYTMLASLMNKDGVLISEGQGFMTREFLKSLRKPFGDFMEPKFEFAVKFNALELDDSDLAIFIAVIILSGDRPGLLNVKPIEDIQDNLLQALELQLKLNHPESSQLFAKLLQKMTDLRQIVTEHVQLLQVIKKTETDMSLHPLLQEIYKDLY
Sequence of Peroxisome proliferator-activated receptor gamma/Nuclear receptor coactivator 3 (Q9Y6Q9 whole entry, further chain): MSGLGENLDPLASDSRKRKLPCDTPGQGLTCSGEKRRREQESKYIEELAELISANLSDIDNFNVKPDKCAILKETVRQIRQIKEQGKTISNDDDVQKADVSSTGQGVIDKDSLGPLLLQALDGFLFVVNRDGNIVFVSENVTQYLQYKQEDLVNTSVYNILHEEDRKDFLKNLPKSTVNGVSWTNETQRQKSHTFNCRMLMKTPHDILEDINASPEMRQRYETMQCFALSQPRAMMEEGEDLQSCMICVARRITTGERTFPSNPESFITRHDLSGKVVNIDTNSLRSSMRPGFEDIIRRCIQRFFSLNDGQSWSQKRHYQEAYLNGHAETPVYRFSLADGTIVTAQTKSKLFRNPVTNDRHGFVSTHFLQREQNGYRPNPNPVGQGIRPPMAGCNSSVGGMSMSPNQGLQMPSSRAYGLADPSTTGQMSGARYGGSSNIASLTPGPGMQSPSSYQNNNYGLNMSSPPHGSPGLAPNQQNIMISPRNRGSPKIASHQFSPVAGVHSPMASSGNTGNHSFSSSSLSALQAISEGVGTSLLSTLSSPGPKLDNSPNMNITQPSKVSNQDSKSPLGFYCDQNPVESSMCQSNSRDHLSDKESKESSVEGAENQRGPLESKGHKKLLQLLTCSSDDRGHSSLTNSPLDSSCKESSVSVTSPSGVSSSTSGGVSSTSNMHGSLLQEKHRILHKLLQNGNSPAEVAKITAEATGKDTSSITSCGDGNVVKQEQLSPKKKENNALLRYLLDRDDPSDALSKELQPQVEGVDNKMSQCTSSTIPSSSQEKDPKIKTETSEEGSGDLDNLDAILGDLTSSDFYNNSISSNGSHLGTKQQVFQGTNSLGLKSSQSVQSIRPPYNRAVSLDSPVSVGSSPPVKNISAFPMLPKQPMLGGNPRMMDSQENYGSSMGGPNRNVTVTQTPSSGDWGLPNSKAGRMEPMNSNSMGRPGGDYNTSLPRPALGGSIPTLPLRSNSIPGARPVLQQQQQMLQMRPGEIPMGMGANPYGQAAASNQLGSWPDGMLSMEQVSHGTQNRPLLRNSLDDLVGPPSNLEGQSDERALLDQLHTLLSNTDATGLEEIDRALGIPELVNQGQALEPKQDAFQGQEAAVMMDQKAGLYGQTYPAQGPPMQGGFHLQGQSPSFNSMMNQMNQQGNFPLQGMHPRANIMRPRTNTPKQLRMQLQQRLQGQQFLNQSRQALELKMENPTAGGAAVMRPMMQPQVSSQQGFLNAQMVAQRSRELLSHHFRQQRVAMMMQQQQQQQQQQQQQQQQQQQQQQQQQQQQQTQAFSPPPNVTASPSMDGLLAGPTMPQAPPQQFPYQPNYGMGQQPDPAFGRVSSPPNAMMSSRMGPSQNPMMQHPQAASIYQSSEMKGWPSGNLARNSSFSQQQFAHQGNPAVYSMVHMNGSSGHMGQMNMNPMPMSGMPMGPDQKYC

In the case of `OC1=C2Sc3ccc(Cl)cc3N=C2CCC1`, the EC50 is 18.4 µM (active) in test [1] and 8.9 µM (inconclusive) in [2]. The IC50 was 13.7 µM (active) in test [3], 17.1 µM (active) in [4] and 42 µM (active) in [5].
In the case of `CCOC(=O)/C(=C\c1ccc(Cl)cc1)c1nc(O)c2c(C)c(C)sc2n1`, the AC50 in test [6] is 0.981 µM (active). The EC50 in test [7] was > 260 µM (inconclusive). Besides, the CC50 in the test with Vero was 16.5 µM (active). For the same compound, in test [8], the IC50 was 1.56 µM (active).
Turning to `O=C1/C(=C/c2ccc([N+](=O)[O-])cc2)Oc2cc(O)ccc21`, the AC50 in test [9] is 53.7 µM (active). Also, in test [7], the EC50 is 175 µM (active). In addition, the IC50 was 38.4 µM (inactive) in [3] and 10.1 µM (active) in test [4].
As to `Cc1ccccc1N1C(=O)CC(Sc2nnc(-c3ccccc3)o2)C1=O` (centres undefined), the EC50 in test [10] is > 26.5 µM (inactive); in test [11], > 79.4 µM (not active); in [12], > 112 µM (not active); in [13], > 112 µM (not active); in test [14], 26.2 µM (not active); in [7], 57.4 µM (active). For the same compound, the figures for the IC50 (at Beta-galactosidase; in [15]; on Beta Lactamase) were > 66.6 µM (inactive), 4.12 µM (active) and 12.7 µM (inactive), respectively.
For the compound `C[C@@H](OC(=O)c1nc[nH]c1C(=O)N1CCc2ccccc2C1)c1ccccc1`, the values for the IC50 in [16] and in test [17] were 80.9 µM (inactive) and 6.73 µM (active), respectively.

As usually defined, the EC50 is the concentration giving half of the maximal effect. The AC50 is the concentration giving half of the maximal activity seen. In general, CC50 refers to the concentration that lowers cell viability or growth by half.
